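Compound exposure: 48 hours, 5 concentrations, 96-well plates. GI50: concentration for 50% inhibition of growth. Definition used: TGI = concentration required for complete inhibition of growth.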
What was measured:
Assay in all cases: NCI tumour cell line growth inhibition, 48 h
CAKI-1 renal = system: CAKI-1 renal
MALME-3M melanoma = system: MALME-3M melanoma
T-47D breast = system: T-47D breast
NCI-H460 lung = system: NCI-H460 lung
NCI-H226 lung = system: NCI-H226 lung
CCRF-CEM leukemia = system: CCRF-CEM leukemia
LOX IMVI melanoma = system: LOX IMVI melanoma
HCT-116 colon = system: HCT-116 colon
NCI-H23 lung = system: NCI-H23 lung
A498 renal = system: A498 renal
SF-295 CNS = system: SF-295 CNS
SW-620 colon = system: SW-620 colon
SK-MEL-5 melanoma = system: SK-MEL-5 melanoma
SNB-19 CNS = system: SNB-19 CNS
786-0 renal = system: 786-0 renal
DU-145 prostate = system: DU-145 prostate
UACC-257 melanoma = system: UACC-257 melanoma
SK-MEL-28 melanoma = system: SK-MEL-28 melanoma
MOLT-4 leukemia = system: MOLT-4 leukemia
RPMI-8226 leukemia = system: RPMI-8226 leukemia
TK-10 renal = system: TK-10 renal
HT29 colon = system: HT29 colon
KM12 colon = system: KM12 colon
A549 NSCLC = system: A549 NSCLC
HS 578T breast = system: HS 578T breast
ACHN renal = system: ACHN renal
MCF7 breast = system: MCF7 breast
SK-MEL-2 melanoma = system: SK-MEL-2 melanoma
SN12C renal = system: SN12C renal
HOP-62 NSCLC = system: HOP-62 NSCLC
K-562 leukemia = system: K-562 leukemia
MDA-MB-435 = system: MDA-MB-435
OVCAR-8 ovarian = system: OVCAR-8 ovarian
BT-549 breast = system: BT-549 breast
COLO 205 colon = system: COLO 205 colon
OVCAR-3 ovarian = system: OVCAR-3 ovarian
UACC-62 melanoma = system: UACC-62 melanoma
NCI/ADR-RES ovarian = system: NCI/ADR-RES ovarian
IGROV1 ovarian = system: IGROV1 ovarian
EKVX NSCLC = system: EKVX NSCLC
RXF 393 renal = system: RXF 393 renal
SF-539 CNS = system: SF-539 CNS
HOP-92 NSCLC = system: HOP-92 NSCLC
OVCAR-4 ovarian = system: OVCAR-4 ovarian
PC-3 prostate = system: PC-3 prostate
SF-268 CNS = system: SF-268 CNS
HCC-2998 colon = system: HCC-2998 colon
HCT-15 colon = system: HCT-15 colon
UO-31 renal = system: UO-31 renal
NCI-H522 lung = system: NCI-H522 lung
SK-OV-3 ovarian = system: SK-OV-3 ovarian
U251 CNS = system: U251 CNS
MDA-MB-231 breast = system: MDA-MB-231 breast
OVCAR-5 ovarian = system: OVCAR-5 ovarian

O=C(Oc1ccccc1Cl)c1cccnc1Nc1ccnc(C(F)(F)F)c1
GI50 (CAKI-1 renal): 23.1 µM | TGI (CAKI-1 renal): 50 µM | GI50 (MALME-3M melanoma): 8.29 µM | TGI (MALME-3M melanoma): 41.1 µM | GI50 (T-47D breast): 29.4 µM | TGI (T-47D breast): > 100 µM | GI50 (NCI-H460 lung): 38.4 µM | TGI (NCI-H460 lung): > 100 µM | GI50 (NCI-H226 lung): 2.61 µM | TGI (NCI-H226 lung): 8.07 µM | GI50 (CCRF-CEM leukemia): 2.4 µM | TGI (CCRF-CEM leukemia): 6.52 µM | GI50 (LOX IMVI melanoma): 3.96 µM | TGI (LOX IMVI melanoma): 14.2 µM | GI50 (HCT-116 colon): 2.13 µM | TGI (HCT-116 colon): 4.35 µM | GI50 (NCI-H23 lung): 8.79 µM | TGI (NCI-H23 lung): 23.7 µM | GI50 (A498 renal): 17.3 µM | TGI (A498 renal): 37.2 µM | GI50 (SF-295 CNS): 21.3 µM | TGI (SF-295 CNS): 52.5 µM | GI50 (SW-620 colon): 3.72 µM | TGI (SW-620 colon): 22.3 µM | GI50 (SK-MEL-5 melanoma): 14 µM | TGI (SK-MEL-5 melanoma): 27 µM | GI50 (SNB-19 CNS): 23.4 µM | TGI (SNB-19 CNS): 70.1 µM | GI50 (786-0 renal): 14.7 µM | TGI (786-0 renal): 31.4 µM | GI50 (DU-145 prostate): 15.7 µM | TGI (DU-145 prostate): 30.4 µM | GI50 (UACC-257 melanoma): 21.4 µM | TGI (UACC-257 melanoma): 63.5 µM | GI50 (SK-MEL-28 melanoma): 20.4 µM | TGI (SK-MEL-28 melanoma): 46.8 µM | GI50 (MOLT-4 leukemia): 2.52 µM | TGI (MOLT-4 leukemia): 8.97 µM | GI50 (RPMI-8226 leukemia): 12.4 µM | TGI (RPMI-8226 leukemia): 36.7 µM | GI50 (TK-10 renal): 24.7 µM | TGI (TK-10 renal): 70.7 µM | GI50 (HT29 colon): 25.3 µM | TGI (HT29 colon): 71.5 µM | GI50 (KM12 colon): 14.4 µM | TGI (KM12 colon): 32.6 µM | GI50 (A549 NSCLC): 30.2 µM | TGI (A549 NSCLC): > 100 µM | GI50 (HS 578T breast): 17.3 µM | TGI (HS 578T breast): 48.9 µM | GI50 (ACHN renal): 22 µM | TGI (ACHN renal): 50.2 µM | GI50 (MCF7 breast): 3.66 µM | TGI (MCF7 breast): 17.5 µM | GI50 (SK-MEL-2 melanoma): 6.79 µM | TGI (SK-MEL-2 melanoma): 21.8 µM | GI50 (SN12C renal): 4.03 µM | TGI (SN12C renal): 18 µM | GI50 (HOP-62 NSCLC): 19 µM | TGI (HOP-62 NSCLC): 37 µM | GI50 (K-562 leukemia): 4.61 µM | TGI (K-562 leukemia): 27.6 µM | GI50 (MDA-MB-435): 4.53 µM | TGI (MDA-MB-435): 18.3 µM | GI50 (OVCAR-8 ovarian): 14.7 µM | TGI (OVCAR-8 ovarian): 47 µM | GI50 (BT-549 breast): 5.12 µM | TGI (BT-549 breast): 22.4 µM | GI50 (COLO 205 colon): 26.6 µM | TGI (COLO 205 colon): 84.5 µM | GI50 (OVCAR-3 ovarian): 16.5 µM | TGI (OVCAR-3 ovarian): 32.6 µM | GI50 (UACC-62 melanoma): 6.13 µM | TGI (UACC-62 melanoma): 18.7 µM | GI50 (NCI/ADR-RES ovarian): 16.5 µM | TGI (NCI/ADR-RES ovarian): 62.8 µM | GI50 (IGROV1 ovarian): 10.7 µM | TGI (IGROV1 ovarian): 30.4 µM | GI50 (EKVX NSCLC): 32.6 µM | TGI (EKVX NSCLC): 84.3 µM | GI50 (RXF 393 renal): 19.1 µM | TGI (RXF 393 renal): 42.6 µM | GI50 (SF-539 CNS): 13.4 µM | TGI (SF-539 CNS): 39.8 µM | GI50 (HOP-92 NSCLC): 35.2 µM | TGI (HOP-92 NSCLC): > 100 µM | GI50 (OVCAR-4 ovarian): 27.8 µM | TGI (OVCAR-4 ovarian): 95.8 µM | GI50 (PC-3 prostate): 17.8 µM | TGI (PC-3 prostate): 36.3 µM | GI50 (SF-268 CNS): 10.1 µM | TGI (SF-268 CNS): 33.6 µM | GI50 (HCC-2998 colon): 15.6 µM | TGI (HCC-2998 colon): 30 µM | GI50 (HCT-15 colon): 14.6 µM | TGI (HCT-15 colon): 29.1 µM | GI50 (UO-31 renal): 14.6 µM | TGI (UO-31 renal): 32.6 µM | GI50 (NCI-H522 lung): 6.6 µM | TGI (NCI-H522 lung): 23.3 µM | GI50 (SK-OV-3 ovarian): 36.9 µM | TGI (SK-OV-3 ovarian): > 100 µM | GI50 (U251 CNS): 17.6 µM | TGI (U251 CNS): 32.9 µM | GI50 (MDA-MB-231 breast): 11.9 µM | TGI (MDA-MB-231 breast): 46.7 µM | GI50 (OVCAR-5 ovarian): 39.6 µM | TGI (OVCAR-5 ovarian): > 100 µM

From PubChem BioAssay (NCI)
